Tests used:
[1] = target: T1, LXRβ full length (FL) (Homo sapiens, UniProt P55055, INS174Q); test: LXR Gal4 reporter transient transfection assay, mammalian two-hybrid, FL-M2H Gal4β; type: cell-based; conditions: HEK293 cells; inverse agonist unless *
T1 construct: the full length (FL) proteins of LXRα (amino acids 1-447); NP005684; NP009052; expressed in transfected cells; host or cells: HEK293
T1 sequence (P55055 with tags, fused parts or gaps INS174Q): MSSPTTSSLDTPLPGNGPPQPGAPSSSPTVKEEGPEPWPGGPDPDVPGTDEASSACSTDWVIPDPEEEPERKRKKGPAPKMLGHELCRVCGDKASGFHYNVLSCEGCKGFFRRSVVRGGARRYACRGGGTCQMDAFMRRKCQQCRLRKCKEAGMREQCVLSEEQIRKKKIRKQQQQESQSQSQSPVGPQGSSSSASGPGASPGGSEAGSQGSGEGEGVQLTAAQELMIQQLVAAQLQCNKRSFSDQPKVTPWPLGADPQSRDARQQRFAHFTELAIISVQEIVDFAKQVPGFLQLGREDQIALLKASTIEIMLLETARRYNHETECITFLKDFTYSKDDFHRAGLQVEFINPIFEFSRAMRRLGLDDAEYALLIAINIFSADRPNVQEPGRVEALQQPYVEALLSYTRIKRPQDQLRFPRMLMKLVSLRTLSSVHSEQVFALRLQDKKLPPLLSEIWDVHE
Method in brief: (§1)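 HEK293 cells transiently cotransfected with NFkB-AD fusions of full-length or LBD LXRα/β, GAL4-DBD fusions of SRC1 coactivator or NCoR corepressor domains, GAL4-driven firefly luciferase and Renilla control. Compound added 4 h post-transfection (≤0.2% DMSO), 16 h incubation; firefly and Renilla luminescence read sequentially.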

[2] = target: T2, GST-LXRβ ligand-binding domain (Homo sapiens, UniProt P55055, INS174Q); test: TR-FRETβ activity assay (NCoA3 coactivator peptide recruitment); type: biochemical; conditions: 1 μM 24(S)-25-epoxycholesterol as prestimulating agonist; inverse agonist unless *
T2 construct: amino acids 156-461; NP009052; made in house; host or cells: E. coli
T2 sequence (P55055 with tags, fused parts or gaps INS174Q limits assumed): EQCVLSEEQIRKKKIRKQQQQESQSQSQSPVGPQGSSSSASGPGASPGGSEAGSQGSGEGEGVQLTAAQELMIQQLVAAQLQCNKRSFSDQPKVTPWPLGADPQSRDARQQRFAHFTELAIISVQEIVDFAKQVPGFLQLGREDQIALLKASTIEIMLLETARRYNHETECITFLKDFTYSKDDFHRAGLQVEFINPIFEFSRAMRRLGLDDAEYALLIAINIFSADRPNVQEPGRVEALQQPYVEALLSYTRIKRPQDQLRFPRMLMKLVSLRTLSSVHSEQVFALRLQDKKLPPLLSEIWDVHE
Method in brief: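 E. coli-expressed GST-LXRβ LBD (aa 156-461, 76 nM) with biotinylated NCoA3 peptide (400 nM), anti-GST-Tb cryptate donor and streptavidin-XL665 acceptor in 240 mM KCl, BSA, 0.002% Triton X-100. Equilibrated 1 h at 4° C; TR-FRET read at 615/665 nm, triplicates.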

[3] = target: T3, LXRα full length (FL) (Homo sapiens, UniProt Q13133); test: LXR Gal4 reporter transient transfection assay, mammalian two-hybrid, FL-M2H Gal4α; type: cell-based; conditions: HEK293 cells; inverse agonist unless *
T3 construct: the full length (FL) proteins of LXRα (amino acids 1-447); NP005684; expressed in transfected cells; host or cells: HEK293
T3 sequence (Q13133 1-447): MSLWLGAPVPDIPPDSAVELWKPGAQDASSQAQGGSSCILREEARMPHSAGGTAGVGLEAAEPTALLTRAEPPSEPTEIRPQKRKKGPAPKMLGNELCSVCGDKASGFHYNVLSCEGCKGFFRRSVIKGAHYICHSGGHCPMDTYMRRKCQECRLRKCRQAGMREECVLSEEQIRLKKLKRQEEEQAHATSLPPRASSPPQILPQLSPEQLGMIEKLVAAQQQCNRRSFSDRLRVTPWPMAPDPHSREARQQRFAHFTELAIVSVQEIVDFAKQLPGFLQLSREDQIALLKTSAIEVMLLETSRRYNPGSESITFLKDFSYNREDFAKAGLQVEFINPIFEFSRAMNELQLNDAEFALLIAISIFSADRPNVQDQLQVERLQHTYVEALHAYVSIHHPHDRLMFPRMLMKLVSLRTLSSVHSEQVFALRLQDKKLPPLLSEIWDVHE
Method in brief: as §1

Structure (SMILES)	EC50 [1] [nM]	EC50 [2] [nM]	EC50 [3] [nM]	FRETβ [2]
O=C(O)CS(=O)(=O)c1cccc(-c2ccc(CN(Cc3ccc(C(F)(F)F)o3)C(=O)c3c(OC(F)F)ccc4ccccc34)cc2)c1 [27/42]	100 to 1000	100 to 1000	1000 to 10000	
CC12CC3(C)CC(C)(C1)CC(C(=O)N(Cc1ccc(-c4cccc(C(C)(C)C(=O)O)c4)cc1)Cc1ccc(C(F)(F)F)o1)(C2)C3 [27/51]	100 to 1000		100 to 1000	B*
Cc1ccc2ccccc2c1C(=O)N(Cc1ccc(C(F)(F)F)o1)Cc1ccc(-c2cncc(S(=O)(=O)CC(=O)O)c2)cc1Cl [27/58]	100 to 1000	1000 to 10000	100 to 1000	
Cc1ccc2ccccc2c1C(=O)N(Cc1ccc(C(F)(F)F)o1)Cc1ccc(-c2cccc(S(=O)(=O)CC(=O)O)c2)cc1Cl [27/59]	100 to 1000	100 to 1000	100 to 1000	
COc1cc(-c2cncc(S(=O)(=O)CC(=O)O)c2)ccc1CN(Cc1ccc(C(F)(F)F)o1)C(=O)c1c(C)ccc2ccccc12 [27/60]	100 to 1000	1000 to 10000	100 to 1000	
COc1cc(-c2cccc(S(=O)(=O)CC(=O)O)c2)ccc1CN(Cc1ccc(C(F)(F)F)o1)C(=O)c1c(C)ccc2ccccc12 [27/61]	100 to 1000	1000 to 10000	100 to 1000	
Cc1ccc2ccccc2c1C(=O)N(Cc1ccc(C(F)(F)F)o1)Cc1ccc(-c2cncc(S(=O)(=O)CC(=O)O)c2)cc1C(F)(F)F [27/62]	100 to 1000	1000 to 10000	1000 to 10000	
CN1CCc2nc3ccccc3c(C(=O)N(Cc3ccc(-c4cccc(C(C)(C)C(=O)O)c4)cc3)Cc3ccc(C(F)(F)F)o3)c2C1 [27/80]	100 to 1000	100 to 1000	100 to 1000	
Cc1ccc2ccccc2c1CN(Cc1ccc(-c2cccc(C(=O)C(=O)O)c2)cc1)Cc1ccc(C(F)(F)F)o1 [27/82]	100 to 1000	1000 to 10000	100 to 1000	
COc1cc(-c2cccc(C(C)(C)C(=O)O)c2)ncc1CN(Cc1ccc(C(F)(F)F)o1)C(=O)c1c(C)ccc2ccccc12 [27/85]	100 to 1000	1000 to 10000	100 to 1000	
Cc1ccc2cnccc2c1C(=O)N(Cc1ccc(-c2cccc(C(C)(C)C(=O)O)c2)cc1)Cc1ccc(C(F)(F)F)o1 [27/86]	< 100	< 100	< 100	
CCc1nc2cnccc2c(C(=O)N(Cc2ccc(-c3cccc(C(C)(C)C(=O)O)c3)cc2)Cc2ccc(C(F)(F)F)o2)c1C [27/88]	< 100	100 to 1000	< 100	
CCc1nc2ccncc2c(C(=O)N(Cc2ccc(-c3cccc(C(C)(C)C(=O)O)c3)cc2)Cc2ccc(C(F)(F)F)o2)c1C [27/89]	100 to 1000	1000 to 10000	100 to 1000	
Cc1nc2ccccc2c(C(=O)N(Cc2ccc(C(F)(F)F)o2)Cc2ncc(-c3cccc(C(C)C(=O)O)c3)cc2Cl)c1C (stereo not drawn) [27/90]	< 100	100 to 1000	< 100	
Cc1ccc2ccccc2c1C(=O)N(Cc1ccc(C(F)(F)F)o1)Cc1ccc(-c2cccc(C(C)(C)C(=O)O)c2)nc1N [27/91]	< 100	1000 to 10000	100 to 1000	
Cc1nc2ncccc2c(C(=O)N(Cc2ccc(-c3cccc(C(C)(C)C(=O)O)c3)cc2)Cc2ccc(C(F)(F)F)o2)c1C [27/92]	< 100	100 to 1000	100 to 1000	
Cc1c(C(=O)N(Cc2ccc(-c3cccc(C(C)(C)C(=O)O)c3)cc2)Cc2ccc(C(F)(F)F)o2)c2ccccc2n(C)c1=O [27/94]	< 100	100 to 1000	< 100	

Second part, the compound after the results:

EC50 [1] [nM]	EC50 [2] [nM]	EC50 [3] [nM]	FRETβ [2]	Structure (SMILES)
< 100	100 to 1000	< 100		Cc1ccc2c(F)cccc2c1CN(Cc1ccc(-c2cccc(C(C)(C)C(=O)O)c2)cc1)Cc1ccc(C(F)(F)F)o1 [27/44]
< 100	< 100	< 100		Cc1cc(C)c([N+](=O)[O-])c(C)c1C(=O)N(Cc1ccc(-c2cccc(C(C)(C)C(=O)O)c2)cc1)Cc1ccc(C(F)(F)F)o1 [27/46]
< 100	100 to 1000	< 100		Cc1cc(Br)cc(C)c1C(=O)N(Cc1ccc(-c2cccc(C(C)(C)C(=O)O)c2)cc1)Cc1ccc(C(F)(F)F)o1 [27/48]
< 100	100 to 1000	< 100		Cc1cc(F)cc(C)c1C(=O)N(Cc1ccc(-c2cccc(C(C)(C)C(=O)O)c2)cc1)Cc1ccc(C(F)(F)F)o1 [27/49]
< 100	100 to 1000	< 100		COCc1c(C)cc(C)c(C(=O)N(Cc2ccc(-c3cccc(C(C)(C)C(=O)O)c3)cc2)Cc2ccc(C(F)(F)F)o2)c1C [27/50]
< 100	100 to 1000	< 100		CCc1ccc2ccccc2c1CN(Cc1ccc(-c2cccc(C(C)(C)C(=O)O)c2)cc1)Cc1ccc(C(F)(F)F)o1 [27/52]
< 100	< 100	< 100		Cc1ccc2ccc(F)cc2c1C(=O)N(Cc1ccc(-c2cccc(C(C)(C)C(=O)O)c2)cc1)Cc1ccc(C(F)(F)F)o1 [27/53]
< 100	100 to 1000	< 100		Cc1ccc2nc(C)c(C)c(C(=O)N(Cc3ccc(-c4cccc(C(C)(C)C(=O)O)c4)cc3)Cc3ccc(C(F)(F)F)o3)c2c1 [27/54]
< 100	100 to 1000	< 100		CC(C)(C(=O)O)c1cccc(-c2ccc(CN(Cc3ccc(C(F)(F)F)o3)C(=O)c3c4c(nc5ccccc35)CCCC4)cc2)c1 [27/55]
< 100	100 to 1000	100 to 1000		Cc1ccc2ccccc2c1C(=O)N(Cc1ccc(C(F)(F)F)o1)Cc1ccc(-c2cncc(C(C)(C)C(=O)O)c2)cc1OC(F)F [27/64]
< 100	100 to 1000	< 100		CCc1cc(-c2cncc(C(C)(C)C(=O)O)c2)ccc1CN(Cc1ccc(C(F)(F)F)o1)C(=O)c1c(C)ccc2ccccc12 [27/65]
< 100	100 to 1000	< 100		COCc1c(C)cc(C)c(CN(Cc2ccc(-c3cccc(C(C)(C)C(=O)O)c3)cc2)Cc2ccc(C(F)(F)F)o2)c1C [27/71]
< 100	100 to 1000	< 100		Cc1ccc2ccccc2c1CN(Cc1ccc(-c2cccc([C@H](C)C(=O)O)c2)cc1)Cc1ccc(C(F)(F)F)o1 [27/73]
< 100	100 to 1000	100 to 1000		Cc1ccc2ccccc2c1C(=O)N(Cc1ccc(-c2cccc(C(C)(N)C(=O)O)c2)cc1)Cc1ccc(C(F)(F)F)o1 (stereo not drawn) [27/74]
< 100	100 to 1000	< 100		Cc1ccc2ccccc2c1C(=O)N(Cc1ccc(-c2cccc(C3(C(=O)O)CC3)c2)cc1)Cc1ccc(C(F)(F)F)o1 [27/75]
< 100	1000 to 10000	< 100		COc1nc(-c2cccc(C(C)(C)C(=O)O)c2)ccc1CN(Cc1ccc(C(F)(F)F)o1)C(=O)c1c(C)ccc2ccccc12 [27/77]
< 100	< 100	< 100		Cc1ccc2ccccc2c1C(=O)N(Cc1ccc(-c2cccc([C@H](C)C(=O)O)c2)cc1)Cc1cccc(C(F)(F)F)c1 [27/83]
< 100	100 to 1000	< 100		Cc1ccc2ccccc2c1C(=O)N(Cc1ccc(-c2cccc([C@H](C)C(=O)O)c2)cc1)Cc1cccc(C#N)c1 [27/84]
